Reference: US4485100A, “Elastase inhibitors, a process for their preparation and medicaments containing these inhibitors” (Bayer Aktiengesellschaft, priority 1982, dated 1984)

Tested on: Wistar rats
Experiment: Aerosil-induced inflammatory reaction, paw swelling
Format: in vivo, rat
Conditions: treated 15 hours after noxa, 21 hour value
Method: The inflammatory reaction was induced by intraplantary injection of 0.1 ml of a 2% Aerosil suspension into a hind paw of Wistar rats weighing 130-160 g. The inhibitors according to the invention used for the treatment of the inflammatory reaction were dissolved in 0.9% sodium chloride solution in a concentration of 10-20 mg/ml. The experimental animals were treated by intraperitoneal, subcutaneous or intravenous injection of 0.5-1.0 ml of the solution of the inhibitors 15 hours after the inflammatory noxa had been set. The swelling of the inflamed paw, which is a measure of the severity of the inflammatory reaction, was followed with respect to time using a Kemper antiphlogmeter. The 21 hour value after the induction of inflammation (=6 hours after injection of the inhibitors according to the invention) was determined to ascertain the dose/effect relationship.

Substance: basic pancreatic trypsin inhibitor [BPTI]
- Inhibition of the inflammatory reaction, swelling of inflamed paw: does not inhibit the inflammatory reaction
